Results from US20230079045A1 (priority 2019, published 2023).

Experiments:
Assay type in all cases: cell-based, influenza virus
IFVA/Mal/302/54 = test: cytopathic effect (CPE) antiviral test in MDCK cells, IFVA/Mal/302/54; settings: unidentified influenza virus, MDCK, 120 h, read-out: EC50(IFVA/Mal/302/54), MDCK cells, CPE method, CCK-8 cell viability, 5 days
IFVA/Weiss/43 = test: cytopathic effect (CPE) antiviral test in MDCK cells, IFVA/Weiss/43; settings: unidentified influenza virus, MDCK, 120 h, read-out: EC50(IFVA/Weiss/43), MDCK cells, CPE method, CCK-8 cell viability, 5 days
IFV A/PR/8/34 = test: cytopathic effect (CPE) antiviral test in MDCK cells, IFV A/PR/8/34; settings: unidentified influenza virus, PR/8, MDCK, 120 h, read-out: EC50(IFV A/PR/8/34)

Row | SMILES | EC50 (IFVA/Mal/302/54) | EC50 (IFVA/Weiss/43) | EC50 (IFV A/PR/8/34)
1 | CC(=O)Nc1ccc2oc(-c3ccnc(C(=O)N4CC5CN(C(c6ccccc6)c6nnn(C)n6)CC5C4)c3)nc2c1 (stereo not shown) [Compound 3, N-(2-(2-(5-((2-methyl-2H-tetrazol-5-yl)(phenyl)methyl)octahydropyrrolo[3,4-c]pyrrole-2-carbonyl)pyridin-4-yl)benzo[d]oxazol-5-yl)acetamide] | 1170 nM | 780 nM | –
2 | O=C(Nc1ccc2oc(-c3ccnc(C(=O)N4CCN(C(c5ccccc5)c5nnn(C(F)F)n5)CC4)c3)nc2c1)[C@H]1C[C@@H]1F (mixture of isomers) [Compound 95, (1R,2S)—N-(2-(2-(4-((R/S)-(2-(difluoromethyl)-2H-tetrazol-5-yl)(phenyl)methyl)piperazine-1-carbonyl)pyridin-4-yl)benzo[d]oxazol-5-yl)-2-fluorocyclopropane-1-carboxamide] | 10 nM | 17 nM | –
3 | CC(=O)Nc1ccc2oc(-c3ccnc(C(=O)N4CCC(=C(c5ccccc5)c5nnn(C)n5)CC4)c3)nc2c1 [Compound 49, N-(2-(2-(4-((2-methyl-2H-tetrazol-5-yl)(phenyl)methylene)piperidine-1-carbonyl)pyridin-4-yl)benzo[d]oxazol-5-yl)acetamide] | 180 nM | 112 nM | –
4 | Cn1nnc(C(c2ccccc2)N2CCN(C(=O)c3cc(-c4nc5cc(NC(=O)[C@H]6C[C@@H]6F)ccc5o4)ccn3)CC2)n1 (stereo partly drawn) [Compound 27, (1R,2S)-2-fluoro-N-(2-(2-(4-((2-methyl-2H-tetrazol-5-yl)(phenyl)methyl)piperazine-1-carbonyl)pyridin-4-yl)benzo[d]oxazol-5-yl)cyclopropane-1-carboxamide] | 127 nM | 33 nM | –
5 | CC(=O)Nc1ccc2oc(-c3ccnc(C(=O)N4CCN(C(c5nnn(C)n5)c5ccccc5F)CC4)c3)nc2c1 (stereo not shown) [Compound 9, N-(2-(2-(4-((2-fluorophenyl)(2-methyl-2H-tetrazol-5-yl)methyl)piperazine-1-carbonyl)pyridin-4-yl)benzo[d]oxazol-5-yl)acetamide] | 214 nM | 126 nM | –
6 | CC(=O)Nc1ccc2oc(-c3ccnc(C(=O)N4CCN(C(c5ccccc5)c5nnn(C)n5)[C@H](C)C4)c3)nc2c1 (single isomer, unassigned) [Compound 16b] | > 10000 nM | > 10000 nM | –
7 | CC(=O)Nc1ccc2nc(-c3ccnc(C(=O)N4CCN(C(c5ccccc5)c5nnn(C(F)F)n5)CC4)c3)oc2c1 (stereo not shown) [Compound 70, N-(2-(2-(4-((2-(difluoromethyl)-2H-tetrazol-5-yl)(phenyl)methyl)piperazine-1-carbonyl)pyridin-4-yl)benzo[d]oxazol-6-yl)acetamide] | 32 nM | 32 nM | –
8 | Cc1nnn(C(c2ccccc2)C2CCN(C(=O)c3cc(-c4nc5cc(NC(=O)C(C)(C)F)ccc5o4)ccn3)CC2)n1 (racemic) [Compound 135, (R/S)-2-fluoro-2-methyl-N-(2-(2-(4-((5-methyl-2H-tetrazol-2-yl)(phenyl)methyl)piperidine-1-carbonyl)pyridin-4-yl)benzo[d]oxazol-5-yl)propanamide] | – | – | 23 nM
9 | Cc1nnn([C@@H](c2ccccc2)C2CCN(C(=O)c3cc(-c4cc5cc(NC(=O)[C@@H]6C[C@@H]6F)ccc5o4)ccn3)CC2)n1 [Compound 139, (1S,2S)-2-fluoro-N-(2-(2-(4-((R)-(5-methyl-2H-tetrazol-2-yl)(phenyl)methyl)piperidine-1-carbonyl)pyridin-4-yl)benzofuran-5-yl)cyclopropanecarboxamide] | – | – | 4 nM
10 | O=C(Nc1ccc2oc(-c3ccnc(C(=O)N4CCN(C(c5ccccc5)c5nnn(CF)n5)CC4)c3)nc2c1)[C@@H]1C[C@@H]1F (mixture of isomers) [Compound 150, (1S,2S)-2-fluoro-N-(2-(2-(4-((S/R)-(2-(fluoromethyl)-2H-tetrazol-5-yl)(phenyl)methyl)piperazine-1-carbonyl)pyridin-4-yl)benzo[d]oxazol-5-yl)cyclopropane-1-carboxamide] | – | – | 8 nM
11 | Cn1cncc1-c1ccc2oc(-c3ccnc(C(=O)N4CCN(C(c5ccccc5)c5nnn(C(F)F)n5)CC4)c3)nc2c1 (racemic) [Compound 126, (R/S)-(4-((2-(difluoromethyl)-2H-tetrazol-5-yl)(phenyl)methyl)piperazin-1-yl)(4-(5-(1-methyl-1H-imidazol-5-yl)benzo[d]oxazol-2-yl)pyridin-2-yl)methanone] | – | – | 1 nM
12 | Cn1nncc1-c1ccc2oc(-c3ccnc(C(=O)N4CCN(C(c5ccccc5)c5nnn(C(F)F)n5)CC4)c3)nc2c1 (racemic) [Compound 131, (R/S)-(4-((2-(difluoromethyl)-2H-tetrazol-5-yl)(phenyl)methyl)piperazin-1-yl)(4-(5-(1-methyl-1H-1,2,3-triazol-5-yl)benzo[d]oxazol-2-yl)pyridin-2-yl)methanone] | – | – | 12 nM
13 | Cn1cncc1-c1ccc2oc(-c3ccnc(C(=O)N4CCC(C(c5ccccc5)n5nnc(C(F)F)n5)CC4)c3)nc2c1 (racemic) [Compound 166, (R/S)-(4-((5-(difluoromethyl)-2H-tetrazol-2-yl)(phenyl)methyl)piperidin-1-yl)(4-(5-(1-methyl-1H-imidazol-5-yl)benzo[d]oxazol-2-yl)pyridin-2-yl)methanone] | – | – | 6 nM
14 | [2H]C([2H])([2H])C(C(=O)Nc1ccc2oc(-c3ccnc(C(=O)N4CCC(C(c5ccccc5)n5nnc(C(F)F)n5)CC4)c3)nc2c1)C([2H])([2H])[2H] (racemic) [Compound 163, 3,3,3-tideuterio-N-[2-[2-[4-[(R/S)-[5-(difluoromethyl)tetrazol-2-yl]-phenyl-methyl]piperidine-1-carbonyl]-4-pyridyl]-1,3-benzoxazol-5-yl]-2-(trideuteriomethyl)propanamide] | – | – | 8 nM
15 | Cc1nnn(C(c2ccccc2)C2CCN(C(=O)c3cc(-c4nc5cc(NC(=O)[C@H]6C[C@H]6F)ccc5o4)ccn3)CC2)n1 (mixture of isomers) [Compound 185, (1R,2R)-2-fluoro-N-(2-(2-(4-((R/S)-(5-methyl-2H-tetrazol-2-yl)(phenyl)methyl)piperidine-1-carbonyl)pyridin-4-yl)benzo[d]oxazol-5-yl)cyclopropanecarboxamide] | – | – | 24 nM
16 | Cc1ncc(-c2ccc3oc(-c4ccnc(C(=O)N5CCN(C(c6ccccc6)c6nnn(C(F)F)n6)CC5)c4)nc3c2)n1C (racemic) [Compound 162, (R/S)-(4-((2-(difluoromethyl)-2H-tetrazol-5-yl)(phenyl)methyl)piperazin-1-yl)(4-(5-(1,2-dimethyl-1H-imidazol-5-yl)benzo[d]oxazol-2-yl)pyridin-2-yl)methanone] | – | – | 3 nM
17 | O=C(c1cc(-c2nc3cc(NC(=O)C4(F)CC4)ccc3o2)ccn1)N1CCN(C(c2ccccc2)c2nnn(C(F)F)n2)CC1 (racemic) [Compound 129] | – | – | 12 nM
18 | Cn1cc(-c2ccc3oc(-c4ccnc(C(=O)N5CCN(C(c6ccccc6)c6nnn(C(F)F)n6)CC5)c4)nc3c2)nn1 (racemic) [Compound 130, (R/S)-(4-((2-(difluoromethyl)-2H-tetrazol-5-yl)(phenyl)methyl)piperazin-1-yl)(4-(5-(1-methyl-1H-1,2,3-triazol-4-yl)benzo[d]oxazol-2-yl)pyridin-2-yl)methanone] | – | – | 29 nM
19 | Cc1nnn(C(c2ccccc2)C2CCN(C(=O)c3cc(-c4nc5cc(NC(=O)[C@H]6C[C@@H]6F)ccc5o4)ccn3)CC2)n1 (mixture of isomers) [Compound 184, (1R,2S)-2-fluoro-N-(2-(2-(4-((R/S)-(5-methyl-2H-tetrazol-2-yl)(phenyl)methyl)piperidine-1-carbonyl)pyridin-4-yl)benzo[d]oxazol-5-yl)cyclopropanecarboxamide] | – | – | 14 nM
20 | Cn1cnc(-c2ccc3oc(-c4ccnc(C(=O)N5CCN(C(c6ccccc6)c6nnn(C(F)F)n6)CC5)c4)nc3c2)c1 (racemic) [Compound 147, (R/S)-(4-((2-(difluoromethyl)-2H-tetrazol-5-yl)(phenyl)methyl)piperazin-1-yl)(4-(5-(1-methyl-1H-imidazol-4-yl)benzo[d]oxazol-2-yl)pyridin-2-yl)methanone] | – | – | 14 nM
21 | O=C(c1cc(-c2nc3cc(-c4cn(C(F)F)cn4)ccc3o2)ccn1)N1CCN(C(c2ccccc2)c2nnn(C(F)F)n2)CC1 (racemic) [Compound 170, (R/S)-(4-(5-(1-(difluoromethyl)-1H-imidazol-4-yl)benzo[d]oxazol-2-yl)pyridin-2-yl)(4-((2-(difluoromethyl)-2H-tetrazol-5-yl)(phenyl)methyl)piperazin-1-yl)methanone] | – | – | 7 nM
22 | O=C(Nc1ccc2oc(-c3ccnc(C(=O)N4CCC(C(c5ccccc5)c5nnn(C(F)F)n5)CC4)c3)nc2c1)[C@@H]1C[C@@H]1F (mixture of isomers) [Compound 168, (1S,2S)—N-(2-(2-(4-((R/S)-(2-(difluoromethyl)-2H-tetrazol-5-yl)(phenyl)methyl)piperidine-1-carbonyl)pyridin-4-yl)benzo[d]oxazol-5-yl)-2-fluorocyclopropane-1-carboxamide] | – | – | 2 nM
23 | COCn1nnc(C(c2ccccc2)N2CCN(C(=O)c3cc(-c4nc5cc(NC(=O)[C@@H]6C[C@@H]6F)ccc5o4)ccn3)CC2)n1 (mixture of isomers) [Compound 214, (1S,2S)-2-fluoro-N-(2-(2-(4-((R/S)(2-(methoxymethyl)-2H-tetrazol-5-yl)(phenyl)methyl)piperazine-1-carbonyl)pyridin-4-yl)benzo[d]oxazol-5-yl)cyclopropane-1-carboxamide] | – | – | 1.9 nM
24 | O=C(Nc1ccc2nc(-c3ccnc(C(=O)N4CCN(C(c5ccccc5)c5nnn(C(F)F)n5)CC4)c3)oc2c1)[C@@H]1C[C@@H]1F (mixture of isomers) [Compound 93, (1S,2S)—N-(2-(2-(4-((R/S)-(2-(difluoromethyl)-2H-tetrazol-5-yl)(phenyl)methyl)piperazine-1-carbonyl)pyridin-4-yl)benzo[d]oxazol-6-yl)-2-fluorocyclopropane-1-carboxamide] | – | – | 16 nM
